Measurements reported in PubChem BioAssay AID330 (DTP/NCI, 2004).
Values joined by “and” are separate entries in the source; they are usually repeats but may differ in a detail not shown here. Equal entries are not always repeated. Toxic doses and inconclusive results are not listed.

Tested on: P388 leukemia ip, CD2F1 mice, survival T/C
Assay: NCI In Vivo Anticancer Drug Screen. Data for tumor model P388 Leukemia (intraperitoneal) in CD2F1 (CDF1) mice
Details: endpoint: median survival time, higher = longer survival
Summary of the method: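 Mice carrying the transplanted tumor received test compound or vehicle. Survival was recorded in each group, and the value is the treated-group measurement divided by that of the vehicle-treated control group.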

[1] = dose: 50.0 mg/kg/injection, schedule: Q01DX009 (ip), vehicle: Klucel (hydroxypropylcellulose) (HPC)
[2] = dose: 100.0 mg/kg/injection, schedule: Q01DX009 (ip), vehicle: Klucel (hydroxypropylcellulose) (HPC)
[3] = dose: 50.0 mg/kg/injection, schedule: Q01DX005 (ip), vehicle: saline with Tween-80
[4] = dose: 100.0 mg/kg/injection, schedule: Q01DX005 (ip), vehicle: saline with Tween-80
[5] = dose: 200.0 mg/kg/injection, schedule: Q01DX005 (ip), vehicle: saline with Tween-80
[6] = dose: 50.0 mg/kg/injection, schedule: Q01DX009 (ip), vehicle: saline with Tween-80
[7] = dose: 100.0 mg/kg/injection, schedule: Q01DX009 (ip), vehicle: saline with Tween-80
[8] = dose: 12.5 mg/kg/injection, schedule: Q01DX009 (ip), vehicle: saline
[9] = dose: 25.0 mg/kg/injection, schedule: Q01DX009 (ip), vehicle: saline
[10] = dose: 50.0 mg/kg/injection, schedule: Q01DX009 (ip), vehicle: saline
[11] = dose: 100.0 mg/kg/injection, schedule: Q01DX009 (ip), vehicle: saline
[12] = dose: 50.0 mg/kg/injection, schedule: Q01DX005 (ip), vehicle: Klucel (hydroxypropylcellulose) (HPC)
[13] = dose: 100.0 mg/kg/injection, schedule: Q01DX005 (ip), vehicle: Klucel (hydroxypropylcellulose) (HPC)
[14] = dose: 200.0 mg/kg/injection, schedule: Q01DX005 (ip), vehicle: Klucel (hydroxypropylcellulose) (HPC)
[15] = dose: 200.0 mg/kg/injection, schedule: Q01DX009 (ip), vehicle: saline with Tween-80

Question: With `O=C(CS(=O)(=O)c1ccccc1)CS(=O)(=O)c1ccccc1` as the molecule, how does the T/C [1] read?
Answer: Its T/C is 96 % of control.

Question: What about the T/C [2] of the same molecule?
Answer: Its T/C is 98 % of control.

Question: What about the T/C (dose: 200.0 mg/kg/injection, schedule: Q01DX009 (ip), vehicle: Klucel (hydroxypropylcellulose) (HPC)) of the same molecule?
Answer: The T/C was 99 % of control.

Question: Which results are given for `O=C1c2cccc3cccc(c23)C(=O)N1CCCCCCCCN1C(=O)c2cccc3cccc(c23)C1=O`?
Answer: T/C [3]: 96 % of control; T/C [4]: 95 % of control; T/C [5]: 87 % of control

Question: With `CSC(=S)NS(=O)(=O)c1cccs1` as the molecule, how does the T/C [1] read?
Answer: Its T/C is 98 % of control.

Question: What about the T/C [2] of the same molecule?
Answer: Its T/C is 91 % of control.

Question: Which results are given for `N=C(N)N`?
Answer: T/C [6]: 100 % of control; T/C [7]: 100 % of control

Question: Which results are given for `C=C1CC(C2OCOC3COCOC32)OC1=O` (stereo unspecified)?
Answer: T/C (dose: 60.0 mg/kg/injection, schedule: Q01DX005 (ip), vehicle: Klucel (hydroxypropylcellulose) (HPC)): 104 % of control; T/C (dose: 120.0 mg/kg/injection, schedule: Q01DX005 (ip), vehicle: Klucel (hydroxypropylcellulose) (HPC)): 111 % of control

Question: How did the T/C (dose: 100.0 mg/kg/injection, schedule: Q04DX003 (ip), vehicle: saline with Tween-80) turn out when `CCCCCn1cnc2c(=S)nc[nH]c21` was run?
Answer: Its T/C is 104 % of control.

Question: What about the T/C (dose: 200.0 mg/kg/injection, schedule: Q04DX003 (ip), vehicle: saline with Tween-80) of the same molecule?
Answer: The T/C was 100 % of control.

Question: And the T/C (dose: 400.0 mg/kg/injection, schedule: Q04DX003 (ip), vehicle: saline with Tween-80)?
Answer: Its T/C is 90 % of control.

Question: With `[N-]=[N+]=NCCOCn1ccc(=O)[nH]c1=O` as the molecule, how does the T/C (dose: 60.0 mg/kg/injection, schedule: Q01DX005 (ip), vehicle: saline) read?
Answer: The T/C was 103 % of control.

Question: And the T/C (dose: 120.0 mg/kg/injection, schedule: Q01DX005 (ip), vehicle: saline)?
Answer: The T/C was 108 % of control.

Question: And the T/C (dose: 240.0 mg/kg/injection, schedule: Q01DX005 (ip), vehicle: saline)?
Answer: Its T/C is 100 % of control.

Question: Which T/C (dose: 6.25 mg/kg/injection, schedule: Q01DX009 (ip), vehicle: saline) does the source give for `C1CN2CCC1C1(C2)SSC2(CN3CCC2CC3)S1` (stereo unspecified) here?
Answer: Its T/C is 100 % of control.

Question: What about the T/C [8] of the same molecule?
Answer: Its T/C is 95 % of control.

Question: And the T/C [9]?
Answer: Its T/C is 95 % of control.

Question: With `N=C(N)c1ccc(/C=C/c2cc3cc(C(=N)N)ccc3[nH]2)cc1` as the molecule, how does the T/C (dose: 6.25 mg/kg/injection, schedule: Q04DX003 (ip), vehicle: saline) read?
Answer: The T/C was 101 % of control and 108 % of control.

Question: And the T/C (dose: 12.5 mg/kg/injection, schedule: Q04DX003 (ip), vehicle: saline)?
Answer: Its T/C is 99 % of control and 102 % of control.

Question: What about the T/C (dose: 25.0 mg/kg/injection, schedule: Q04DX003 (ip), vehicle: saline) of the same molecule?
Answer: Its T/C is 99 % of control and 101 % of control.

Question: How did the T/C (dose: 12.5 mg/kg/injection, schedule: Q01DX009 (ip), vehicle: saline with Tween-80) turn out when `N#Cc1ncc(C[P+](c2ccccc2)(c2ccccc2)c2ccccc2)nc1N` was run?
Answer: The T/C was 91 % of control.

Question: What about the T/C (dose: 25.0 mg/kg/injection, schedule: Q01DX009 (ip), vehicle: saline with Tween-80) of the same molecule?
Answer: Its T/C is 94 % of control.

Question: What about the T/C [6] of the same molecule?
Answer: The T/C was 95 % of control.

Question: `CCCCN(CCCC)CCNc1ccc(C)c2sc3ccccc3c(=O)c12` was tested. Which T/C [8] did it give?
Answer: The T/C was 100 % of control.

Question: What about the T/C [9] of the same molecule?
Answer: The T/C was 102 % of control.

Question: And the T/C [10]?
Answer: The T/C was 102 % of control.

Question: And the T/C [11]?
Answer: The T/C was 100 % of control.

Question: Which results are given for `CCc1cccc(CC)c1N1C(=O)CSCC1=O`?
Answer: T/C [10]: 99 % of control; T/C [11]: 93 % of control; T/C (dose: 200.0 mg/kg/injection, schedule: Q01DX009 (ip), vehicle: saline): 100 % of control

Question: `Cn1c(=O)[nH]n(C2Cn3c(=O)n(C)c(=O)n3-c3ccccc32)c1=O` (stereo unspecified) was tested. Which T/C [12] did it give?
Answer: Its T/C is 115 % of control.

Question: And the T/C [13]?
Answer: The T/C was 99 % of control.

Question: And the T/C [14]?
Answer: Its T/C is 96 % of control.

Question: Which T/C [6] does the source give for `COc1ccc(N=NC2C(=O)N(C(=O)c3ccncc3)N=C2C)cc1` (stereo unspecified) here?
Answer: The T/C was 95 % of control.

Question: And the T/C [7]?
Answer: Its T/C is 95 % of control.

Question: What about the T/C [15] of the same molecule?
Answer: Its T/C is 96 % of control.

Question: Which T/C [12] does the source give for `CCOC1NC(=O)C(OCC)NC1=O` (stereo unspecified) here?
Answer: Its T/C is 96 % of control.

Question: What about the T/C [13] of the same molecule?
Answer: The T/C was 99 % of control.

Question: What about the T/C [14] of the same molecule?
Answer: The T/C was 97 % of control.

Question: `CCCCC(C)C(=O)/C=C/c1ccccc1` (stereo unspecified) was tested. Which T/C [6] did it give?
Answer: Its T/C is 107 % of control and 120 % of control.

Question: And the T/C [7]?
Answer: Its T/C is 108 % of control and 118 % of control.

Question: What about the T/C [15] of the same molecule?
Answer: The T/C was 120 % of control.

Question: And the T/C (dose: 400.0 mg/kg/injection, schedule: Q01DX009 (ip), vehicle: saline with Tween-80)?
Answer: Its T/C is 117 % of control.

Question: How did the T/C [12] turn out when `O=C1NC(Cc2c[nH]c3ccccc23)C(=O)N2CCCC12` (stereo unspecified) was run?
Answer: Its T/C is 100 % of control.

Question: What about the T/C [13] of the same molecule?
Answer: Its T/C is 104 % of control.

Question: What about the T/C [14] of the same molecule?
Answer: The T/C was 97 % of control.

Question: Which results are given for `Cc1ccc2cccc([N+](=O)[O-])c2n1`?
Answer: T/C (dose: 12.5 mg/kg/injection, schedule: Q04DX003 (ip), vehicle: saline with Tween-80): 100 % of control; T/C (dose: 25.0 mg/kg/injection, schedule: Q04DX003 (ip), vehicle: saline with Tween-80): 104 % of control; T/C (dose: 50.0 mg/kg/injection, schedule: Q04DX003 (ip), vehicle: saline with Tween-80): 95 % of control

Question: How did the T/C [3] turn out when `COc1ccc(CCNC2=CC(=O)CCC2)cc1OC` was run?
Answer: The T/C was 101 % of control.

Question: What about the T/C [4] of the same molecule?
Answer: The T/C was 99 % of control.

Question: What about the T/C [5] of the same molecule?
Answer: Its T/C is 101 % of control.
